Results reported in paper PMC7140498, “Predicting liver cytosol stability of small molecules” (Journal of Cheminformatics, 2020).

Test: Metabolic stability assay (substrate depletion) in human liver cytosol fractions
Conditions: both, human, cytosol, pH 7.4, t1/2 [min] (Right), external validation, sheet Human, right compound
Experimental: Our assay (384-well format) consisted of two parts; a robotic system for incubation and sample clean up and an integrated LC/MS method to calculate the percent remaining of parent compound. Briefly, each reaction mixture (110 μL) consisted of a test compound (1 μM) and either human or mouse cytosol fractions (2 mg/mL) in phosphate buffer (100 mM) at pH 7.4. Samples were incubated in 384-well plates at 37 °C for 0, 5, 10, 15, 30 and 60 min. Sample analysis and t1/2 calculations were performed using a previously described method [15]. […] A set of control compounds for low and high cytosolic stability were routinely run in each plate.

SMILES	half-life at 1 μM [h]
CN1CCN(C(=O)Cc2cccn2-c2ccc(F)cc2)CC1 [CN1CCN(C(=O)Cc2cccn2-c2ccc(F)cc2)CC1]	> 2

Same assay, conditions: both, human, liver cytosol fractions, pH 7.4, t1/2 [min] (Left), external validation, sheet Human, left compound

half-life at 1 μM [h]	SMILES
0.943	CC(C)(C)c1coc([C@@H]2COCCN2Cc2cccc(C#N)c2)n1
> 2	CN1c2cc(C(=O)Nc3ccc(C#N)cc3)ccc2C(=O)N2CCCCC21 (stereo not shown)
0.693	N#Cc1cccc(CN2CC(COc3ccccc3)C3(C2)CN(c2ccccc2)C3)c1 (stereo not shown)

SMILES	half-life at 1 μM [h]
CC(=O)N1CCC(Cc2ccc(C(=O)NC3CC3)cc2)CC1 [CC(=O)N1CCC(Cc2ccc(C(=O)NC3CC3)cc2)CC1]	1.33

Same assay, conditions: both, human, liver cytosol fractions, pH 7.4, t1/2 [min] (Right), external validation, sheet Human, right compound

half-life at 1 μM [h]	SMILES
> 2	CC1(c2ccccc2)N(Cc2ccccc2)C(=O)OC12CCN(Cc1ccc(C(=O)O)cc1)CC2 (stereo not shown)
> 2	CCN1CCN(C(=O)c2nc3sccn3c2-c2cccc(OC)c2)CC1
> 2	CCOc1cc(=O)n2c(c1C(=O)Nc1ccc(S(N)(=O)=O)cc1)CCCC2
> 2	CNC(=O)[C@@H]1CN(C(=O)c2cccc(OC)c2)C[C@H]1COC
> 2	COc1ccc(CN2CC[C@@](C)(O)[C@H](N3CCCC3)C2)cc1
> 2	COc1ccc(C(=O)N2C[C@@H](CO)[C@H](N(C)C)C2)cc1
1.55	COc1cccc(-c2c(C(=O)Nc3ccc(C)cc3)nc3sccn23)c1
0.993	COc1cccc(-c2cn3c(n2)N(C(=O)c2ccco2)CCC3)c1
> 2	COc1cccc(-c2cn3c(n2)N(C(=O)c2cccs2)CCC3)c1
1.86	COc1cccc(-c2cn3c(n2)N(C(=O)c2ccoc2)CCC3)c1
> 2	COc1cccc(CN2CC[C@H](c3nc4ccccc4[nH]3)C2)c1
1.97	COc1cccc(CN2CC[C@H](c3nnc(-c4ccco4)o3)C2)c1
> 2	Cc1nn2c(c1-c1ccccc1Oc1ccccc1)N(Cc1ccc(C(=O)O)cc1)CCC2
> 2	Cc1noc(-c2cn(C3CCN(C(=O)c4ccccc4)C3)nn2)n1 (stereo not shown)
> 2	O=C(N1CCN(S(=O)(=O)c2ccccc2)CC1)N1CC2CC(C1)[C@H]1CCCC(=O)N1C2 (stereo partly shown)
> 2	O=C(O)c1ccc(CN2CCOC[C@H]2c2nc(-c3ccc(F)cc3)c[nH]2)cc1
> 2	CN(CC1CCOC1)C(=O)Nc1ccccc1 (stereo not shown) [CN(CC1CCOC1)C(=O)Nc1ccccc1]
0.127	CN(Cc1ccccc1)C1CCOc2ccccc21 (stereo not shown) [CN(Cc1ccccc1)C1CCOc2ccccc21]
> 2	COCCNC(=O)c1nc2sccn2c1-c1cccc(OC)c1 [COCCNC(=O)c1nc2sccn2c1-c1cccc(OC)c1]
1.9	COc1cccc(-c2c(C(=O)N3CCCCC3)nc3sccn23)c1 [COc1cccc(-c2c(C(=O)N3CCCCC3)nc3sccn23)c1]
> 2	COc1cccc(-c2c(C(=O)N3CCOCC3)nc3sccn23)c1 [COc1cccc(-c2c(C(=O)N3CCOCC3)nc3sccn23)c1]
> 2	COc1cccc(-c2c(C(=O)NC3CC3)nc3sccn23)c1 [COc1cccc(-c2c(C(=O)NC3CC3)nc3sccn23)c1]

SMILES	half-life at 1 μM [h]
CC(C)CN1C(=O)c2cccn2CC1C(=O)N1CCN(C)CC1 (stereo not shown) [CC(C)CN1C(=O)c2cccn2CC1C(=O)N1CCN(C)CC1]	1.79
CCOCCOC1CCN(C(=O)Nc2ccccc2)CC1 [CCOCCOC1CCN(C(=O)Nc2ccccc2)CC1]	> 2
CN1CCC(OC2CCN(C(=O)c3ccccc3)CC2)CC1 [CN1CCC(OC2CCN(C(=O)c3ccccc3)CC2)CC1]	> 2
COCCOC1CCN(C(=O)Nc2ccccc2)CC1 [COCCOC1CCN(C(=O)Nc2ccccc2)CC1]	> 2
COc1ccc(C(=O)N2CCC3(CCC3OC)CC2)cc1 (stereo not shown) [COc1ccc(C(=O)N2CCC3(CCC3OC)CC2)cc1]	1.17
COc1ccc(CN2CC(N3CCc4ccccc43)C2)cc1 [COc1ccc(CN2CC(N3CCc4ccccc43)C2)cc1]	1.37
COc1ccc(CN2CC(Oc3ccc(F)c(C)c3)C2)cc1 [COc1ccc(CN2CC(Oc3ccc(F)c(C)c3)C2)cc1]	0.36
COc1ccc(CN2CC(Oc3ccc(F)c(F)c3)C2)cc1 [COc1ccc(CN2CC(Oc3ccc(F)c(F)c3)C2)cc1]	0.5
COc1ccc(CN2CC(Oc3ccc(F)cc3C)C2)cc1 [COc1ccc(CN2CC(Oc3ccc(F)cc3C)C2)cc1]	0.35
COc1ccc(CN2CC(Oc3ccc(OC)cc3)C2)cc1 [COc1ccc(CN2CC(Oc3ccc(OC)cc3)C2)cc1]	> 2
COc1ccc(CN2CCC3(C2)NC(=O)c2ccccc2O3)cc1 (stereo not shown) [COc1ccc(CN2CCC3(C2)NC(=O)c2ccccc2O3)cc1]	> 2
COc1ccc(CN2CCC3(CC2)CC(=O)c2ccccc2O3)cc1 [COc1ccc(CN2CCC3(CC2)CC(=O)c2ccccc2O3)cc1]	> 2
COc1ccc(CN2CCC3(COc4ccccc4C(=O)N3)C2)cc1 (stereo not shown) [COc1ccc(CN2CCC3(COc4ccccc4C(=O)N3)C2)cc1]	0.578
COc1ccc(CN2CCC(N3CCNC3=O)CC2)cc1 [COc1ccc(CN2CCC(N3CCNC3=O)CC2)cc1]	> 2
COc1ccc(CN2CCC(N3CCOC3=O)CC2)cc1 [COc1ccc(CN2CCC(N3CCOC3=O)CC2)cc1]	> 2
COc1ccc(CN2CCC(N3Cc4cccn4C3=O)CC2)cc1 [COc1ccc(CN2CCC(N3Cc4cccn4C3=O)CC2)cc1]	> 2
COc1ccc(CN2CC[C@H](c3nnc(C)o3)C2)cc1 [COc1ccc(CN2CC[C@H](c3nnc(C)o3)C2)cc1]	> 2

Same assay, conditions: both, human, liver cytosol fractions, pH 7.4, t1/2 [min] (left), in-house library pair, human transforms, left compound

half-life at 1 μM [h]	SMILES
0.943	CC(C)(C)c1coc([C@@H]2COCCN2Cc2cccc(C#N)c2)n1
0.693	N#Cc1cccc(CN2CC(COc3ccccc3)C3(C2)CN(c2ccccc2)C3)c1 (stereo not shown)

SMILES	half-life at 1 μM [h]
CC(=O)N1CCC(Cc2ccc(C(=O)NC3CC3)cc2)CC1 [CC(=O)N1CCC(Cc2ccc(C(=O)NC3CC3)cc2)CC1]	1.33

Same assay, conditions: external validation, sheet Human, left compound

SMILES	t1/2 [min] (Left)
CCOc1cc(=O)n2c(c1C(=O)Nc1ccc(C#N)cc1)CCCC2	101.4
CNC(=O)[C@@H]1CN(C(=O)c2cccc(C#N)c2)C[C@H]1COC	86.6
COc1ccc(-c2n[nH]c3ncc(-c4cccc(F)c4)nc23)c(C)c1	75.8
Cc1cc2cc(-c3c(C)noc3C)nc(Nc3cccc(F)c3)c2o1	8.2
Cc1ccc(-c2noc([C@@H]3Cc4[nH]cnc4CN3Cc3cccc(C#N)c3)n2)cc1	63.4
Cc1ccc(NC(=O)c2nc3sccn3c2-c2cccc(C#N)c2)cc1	17.4
Cn1ccc(NC(=O)c2ccc(-c3ncc4cnc(-c5cccc(F)c5)cn34)cc2)n1	33.2
Fc1cccc(-c2c[nH]c([C@@H]3COCCN3Cc3c[nH]cn3)n2)c1	59.3
N#Cc1ccc(CN2CCC3(COc4ccccc4C(=O)N3)C2)cc1 (stereo not shown)	38.4
N#Cc1ccc(CN2C[C@@H](CO)[C@H](c3ccncc3)C2)cc1	107.1
N#Cc1cccc(-c2c(C(=O)N3CCCCC3)nc3sccn23)c1	103.4
N#Cc1cccc(-c2cn3c(n2)N(C(=O)c2ccco2)CCC3)c1	36.7
N#Cc1cccc(CN2CCOC[C@H]2c2nc(-c3ccc(F)cc3)c[nH]2)c1	94.7
N#Cc1cccc(CN2C[C@@H](CO)[C@H](c3ccccn3)C2)c1	57.4
O=C(NCCc1c[nH]cn1)c1ccc(-c2ncc3cnc(-c4cccc(F)c4)cn23)cc1	14.9
CN(Cc1cccc(F)c1)C1CCOc2ccccc21 (stereo not shown) [CN(Cc1cccc(F)c1)C1CCOc2ccccc21]	8.6
COC1CCC12CCN(C(=O)c1ccc(C#N)cc1)CC2 (stereo not shown) [COC1CCC12CCN(C(=O)c1ccc(C#N)cc1)CC2]	79.2
